For one experiment, the system named is benzodiazepine receptors. Put plainly: In vivo inhibition of 3H-flunitrazepam binding to mouse forebrain membranes, test substances i.p. (Procedure 130). The note with it: 3H-flunitrazepam i.v., dose inhibiting 50% of specific forebrain binding. The method, then:
I. In vivo inhibition of ^3 H-flunitrazepam binding to mouse forebrain membranes by test substances administered intraperitoneally. (Procedure 130)
Twenty minutes after a dose of ^3 H-flunitrazepam (^3 H-FNM) (200 μCi/kg, i.v.) the amount of specific ^3 H-FNM binding to brain benzodiazepine receptors has reached its maximal value.
Suspensions of test substances (2 mg/ml) are prepared in 5% Duphasol-X* by sonification for 10 min using a Branson B15 microtip ultrasonifier (setting 7). Groups of three mice (female, NMR, 18-22 gram) are injected with the test substance at 100 mg/kg intraperitoneally. Fifteen minutes after test substance administration the mice are challenged with 4 μCi intravenously of ^3 H-FNM (70-90 Ci/mole) in 200 μl physiological saline. Twenty minutes after ^3 H-FNM administration mice are sacrificed by decapitation, the forebrains rapidly excised (within 30 sec) and homogenized in 12 ml of icecold 25 mM KH2 PO4, pH 7.1, using an Ultra-Turrax homogenizer fitted with an N 10 shaft. Two aliquots of 1 ml are immediately filtered through Whatman GF/C glassfibre filters and washed with 2×5 ml of the above mentioned buffer. The amounts of radioactivity on the filters are determined by conventional scintillation counting. One group of untreated mice serves as controls. One to three mice are injected with 25 mg/kg clonazepam i.p. 30 minutes before ^3 H-FNM to determine the amount of non-specific ^3 H-FNM binding, which should be between 8-15% of total binding.
When doses of 100 mg/kg inhibit more than 50% of specific ^3 H-flunitrazepam binding; test substances are administered in doses, which are factors of 3.16 times lower than 100 mg/kg.
The ED50 for a test substance is defined as that dose which inhibits 50% of specific ^3 H-FNM binding. Specific binding is the amount of binding in controls minus the amount binding in clonazepam-treated mice.
The ED50 value is determined from dose response curves. If only one dose of test substance is administered the ED50 value is calculated as follows, provided that the inhibition of specific binding is within the range of 25-75%: [formula] where Co is specific binding in controls and Cx is specific binding in mice treated with test substance.

Experiment [1] deals with pentylenetetrazol induced tonic convulsions. Briefly: Pentazol tonic conv. mice i.p. (Procedure 401). The format is in vivo, mice (NMRI). The following applies: Mus musculus, ip, 0.5 h, i.p. 30 min before pentylenetetrazol 150 mg/kg s.c., tonic seizures, read-out: ED50 activity against pentazol induced convulsions, tonic. The method, then: III. Pentazol tonic conv. mice i.p. (Procedure 401)
Pentylenetetrazol induces clonic and tonic convulsions in mice at doses of 60-120 mg/kg s.c. The mechanism is unknown but seem to be due to some effects through the GABA receptor/benzodiazepine receptor/chloride ionophore complex. Antagonism of convulsions induced by maximal doses of pentylenetetrazol is considered predictive for drugs effective against petit mal epilepsia and anxiety.
150 mg/kg pentylenetetrazol (Pentazol, Sigma) dissolved in 0.9% NaCl is given by the subcutaneous route in volumes of 15 ml/kg to male or female NMRI mice weighing 20-25 g 30 min after an intraperitoneal injection of a test compound.
The ED50 value is calculated as the dose in μg/kg where seizures are inhibited in 50% of the animals using a computer program based on the method of Litchfield and Wilcoxon (1949).

Experiment [2] relates to pentylenetetrazol induced clonic convulsions. Put plainly: Pentazol clonic conv. mice (i.p.) (Procedure 400). The format is in vivo, mice (NMRI). The following applies: Mus musculus, ip, 0.5 h, i.p. 30 min before pentylenetetrazol 150 mg/kg s.c., clonic seizures, read-out: ED50 activity against pentazol induced convulsions, clonic. The method, then: II. Pentazol clonic conv. mice (i.p.) (Procedure 400)
Pentylenetetrazol induces clonic and tonic convulsions in mice at doses of 60-120 mg/kg s.c. The mechanism is unknown but seems to be due to some effects through the GABA receptor/benzodiazepine receptor/chloride ionophore complex. Antagonism of convulsions induced by maximal doses of pentylenetetrazol is considered predictive for drugs effective against petit mal epilepsia and anxiety.
150 mg/kg pentylenetetrazol dissolved in 0.9% NaCl is given by the subcutaneous route in volume of 15 ml/kg to male or female NMRI mice weighing 20-25 g 30 min after an intraperitoneal injection of a test compound.
The ED50 value is calculated as the dose in μg/kg at which seizures are inhibited in 50% of the animals using a computer program based on the method of Litchfield and Wilcoxon (1949).

The structures appear in SMILES notation.

Experimental findings from patent US4745112A, “Oxadiazolylimidazobenzodiazepine, compositions, and method III” (A/S Ferrosan, priority 1985, dated 1988) are described below.

One may read the ED50 as the dose that gives a 50% effect, or the effect in half of the subjects. Regarding `CN1Cc2c(-c3noc(C4CC4)n3)ncn2-c2cccc(F)c2C1=O`, the “ED50 binding in vivo” value in the experiment with benzodiazepine receptors was found to be 0.09 mg/kg. Also, the ED50 in experiment [1] came out at 0.005 mg/kg; in experiment [2], 0.02 mg/kg.

Take `CN1Cc2c(-c3noc(C4CC4)n3)ncn2-c2cccc(C(F)(F)F)c2C1=O`: the “ED50 binding in vivo” value in the experiment with benzodiazepine receptors is 0.01 mg/kg. The median effective dose (ED50) in experiment [1] was found to be 0.003 mg/kg; in experiment [2], 0.008 mg/kg.

In the case of `CC(C)c1noc(-c2ncn3c2CN(C)C(=O)c2c(Cl)cccc2-3)n1`, the “ED50 binding in vivo” value in the experiment on benzodiazepine receptors was found to be 0.2 mg/kg. Also, the ED50 in experiment [1] was 0.2 mg/kg; in experiment [2] it was 0.6 mg/kg.

As to `CN1Cc2c(-c3nc(C4CC4)no3)ncn2-c2cccc(Cl)c2C1=O`, in the experiment on benzodiazepine receptors, the “ED50 binding in vivo” value is 0.06 mg/kg. The ED50 in experiment [1] turned out to be 0.03 mg/kg; in experiment [2], 0.09 mg/kg.

Consider `O=C1c2c(Cl)cccc2-n2cnc(-c3noc(C4CC4)n3)c2C2CCCN12` (stereo not drawn), for which the “ED50 binding in vivo” value with benzodiazepine receptors amounted to 0.96 mg/kg.

Consider `O=C1c2c(Cl)cccc2-n2cnc(-c3nc(C4CC4)no3)c2C2CCCN12` (stereo not drawn), for which, in the experiment on benzodiazepine receptors, the “ED50 binding in vivo” value was found to be 0.23 mg/kg. The ED50 in experiment [1] was found to be 0.08 mg/kg.
